Drawing on ChEMBL document CHEMBL6153145, “Isocoumarins from Spegazzinia sp. MDCW-573 with Antibacterial and Proangiogenic Activities” (2025), this text covers Activity and MIC for 21 compounds.

In one test the test system is HCT-116. Nature of the test: Cytotoxicity against human HCT-116 cells. In kind it is functional, cell-based.
A further test deals with Escherichia coli. Nature of the test: Antibacterial activity against Escherichia coli by broth microdilution method. It is filed as functional.
The test system of another test is Pseudomonas aeruginosa. Nature of the test: Antibacterial activity against Pseudomonas aeruginosa by broth microdilution method. It is filed as functional.
In the next test the test system is HepG2. Nature of the test: Cytotoxicity against human HepG2 cells. In kind it is functional, cell-based.
Another test relates to MCF7. Briefly: Cytotoxicity against human MCF7 cells. It is filed as functional, cell-based.
Another test concerns Staphylococcus aureus. Briefly: Antibacterial activity against Staphylococcus aureus by broth microdilution method. In kind it is functional.
Another test concerns HeLa. Briefly: Cytotoxicity against human HeLa cells. In kind it is functional, cell-based.
The test system of the next test is A549. Briefly: Cytotoxicity against human A549 cells. It is filed as functional, cell-based.
The species named for test [1] is Danio rerio. Nature of the test: Induction of pro-angiogenic activity in transgenic Tg (flk1:EGFP) zebrafish model assessed as growth of intersegmental vessel at 10 uM for 24 hrs by olympus fluorescence microscopy analysis. In kind it is functional, organism-based.
For test [2], the species on record is Danio rerio. Briefly: Induction of pro-angiogenic activity in transgenic Tg (flk1:EGFP) zebrafish model assessed as growth of intersegmental vessel at 40 uM for 24 hrs by olympus fluorescence microscopy analysis. It is filed as functional, organism-based.
For test [3], the species on record is Danio rerio. Briefly: Induction of pro-angiogenic activity in transgenic Tg (flk1:EGFP) zebrafish model assessed as growth of intersegmental vessel at 20 uM for 24 hrs by olympus fluorescence microscopy analysis. In kind it is functional, organism-based.

Values after ≈ are worked out from the molar mass of the structure shown. Active and inactive are the calls of the source. No cut-off for these calls is given here.

With `C[C@H]1OC(=O)c2c(O)cc(O)cc2[C@H]1Cl`, the outcome with HCT-116, in the test with HepG2, in the test on MCF7, with HeLa and with A549 was inactive. The MIC with Escherichia coli turned out to be 32 µg/mL (≈ 140 µM); with Pseudomonas aeruginosa, 64 µg/mL (≈ 280 µM); against Staphylococcus aureus it was 64 µg/mL (≈ 280 µM).
`CCO[C@H]1c2cc(O)c(OC)c(O)c2C(=O)O[C@@H]1C`: the outcome in the test with HCT-116, with HepG2, in the test with MCF7, in the test with HeLa and in the test on A549 was inactive.
On to `COc1c(O)cc2c(c1O)C(=O)O[C@H](C)[C@H]2Oc1c(Cl)c2c(c(O)c1OC)C(=O)O[C@H](C)[C@H]2O`, for which the outcome in the test filed under Danio rerio [1], in the test filed under Danio rerio [2] and in the test listed under Danio rerio [3] was Active. For the same compound, the result with HCT-116, with HepG2, in the test on MCF7, in the test with HeLa and in the test on A549 was inactive. Moreover, the MIC against Escherichia coli is 32 µg/mL (≈ 64.4 µM); in the test with Pseudomonas aeruginosa, 64 µg/mL (≈ 129 µM); with Staphylococcus aureus it was 64 µg/mL (≈ 129 µM).
Take `COc1c(O)c(Cl)c2c(c1O)C(=O)O[C@H](C)[C@H]2O`: the result in the test on HCT-116, in the test on HepG2, in the test on MCF7, in the test with HeLa and in the test with A549 was inactive. The MIC against Escherichia coli came out at 32 µg/mL (≈ 117 µM); in the test with Pseudomonas aeruginosa, 32 µg/mL (≈ 117 µM); in the test on Staphylococcus aureus it was 64 µg/mL (≈ 233 µM).
On to `COc1c(O)cc2cc(C)oc(=O)c2c1O`, for which the outcome in the test on HCT-116, in the test on HepG2, in the test with MCF7, in the test on HeLa and with A549 was inactive. Further, the results for the MIC against Escherichia coli, against Pseudomonas aeruginosa and in the test on Staphylococcus aureus were 16 µg/mL (≈ 72 µM), 32 µg/mL (≈ 144 µM) and 4 µg/mL (≈ 18 µM), respectively.
In the case of `COc1c(O)c(Cl)c2c(c1O)C(=O)O[C@H](C)[C@@H]2O`, the outcome in the test on HCT-116, with HepG2, in the test with MCF7, with HeLa and in the test with A549 was inactive. For the same compound, the MIC against Escherichia coli, against Pseudomonas aeruginosa and against Staphylococcus aureus was 64 µg/mL (≈ 233 µM) in each case.
With `COc1c(O)cc2c(c1O)C(=O)O[C@H](C)[C@H]2Oc1c(Cl)c2c(c(O)c1OC)C(=O)O[C@H](C)[C@@H]2O`, the result in the test on HCT-116, with HepG2, with MCF7, with HeLa and with A549 was inactive. In addition, the MIC against Escherichia coli is 4 µg/mL (≈ 8.05 µM); in the test on Pseudomonas aeruginosa, 64 µg/mL (≈ 129 µM); against Staphylococcus aureus it was 64 µg/mL (≈ 129 µM).
For `COc1c(O)cc2c(c1O)C(=O)O[C@H](C)[C@@H]2Oc1c(Cl)c2c(c(O)c1OC)C(=O)O[C@H](C)[C@H]2O`, the result in the test filed under Danio rerio [1], in the test filed under Danio rerio [2] and in the test filed under Danio rerio [3] was Active. The outcome in the test on HCT-116, with HepG2, with MCF7, in the test on HeLa and with A549 was inactive. Moreover, the MIC against Escherichia coli was found to be 32 µg/mL (≈ 64.4 µM); in the test on Pseudomonas aeruginosa, 32 µg/mL (≈ 64.4 µM); in the test with Staphylococcus aureus, 64 µg/mL (≈ 129 µM).
For `C[C@@H]1Cc2cc(O)c(O)c(O)c2C(=O)O1`, the result in the test with HCT-116, in the test on HepG2, in the test on MCF7, in the test with HeLa and in the test with A549 was inactive. Also, the MIC came out at 64 µg/mL (≈ 304 µM) in the test with Escherichia coli, 32 µg/mL (≈ 152 µM) with Pseudomonas aeruginosa and 64 µg/mL (≈ 304 µM) in the test on Staphylococcus aureus.
Regarding `O=C(O)c1cn(C2CC2)c2cc(N3CCNCC3)c(F)cc2c1=O` [CIPROFLOXACIN], the minimal inhibitory concentration (MIC) in the test with Pseudomonas aeruginosa amounted to 4 µg/mL (≈ 12.1 µM); against Staphylococcus aureus it was 0.5 µg/mL (≈ 1.51 µM).
Take `COc1c(O)cc2c(c1O)C(=O)O[C@H](C)[C@H]2Oc1cc2c(c(O)c1OC)C(=O)O[C@H](C)C2`: the result with HCT-116, in the test with HepG2, with MCF7, in the test on HeLa and in the test on A549 was inactive. Moreover, the minimum inhibitory concentration (MIC) against Escherichia coli was 1 µg/mL (≈ 2.24 µM); against Pseudomonas aeruginosa, 32 µg/mL (≈ 71.7 µM); with Staphylococcus aureus it was 2 µg/mL (≈ 4.48 µM).
In the case of `COc1c(O)cc2c(c1O)C(=O)O[C@H](C)[C@H]2Oc1cc2c(c(O)c1OC)C(=O)O[C@H](C)[C@@H]2O`, the outcome in the test on HCT-116, in the test with HepG2, in the test with MCF7, in the test on HeLa and with A549 was inactive. Also, the figures for the MIC against Escherichia coli, in the test with Pseudomonas aeruginosa and in the test with Staphylococcus aureus were 64 µg/mL (≈ 138 µM), 16 µg/mL (≈ 34.6 µM) and 16 µg/mL (≈ 34.6 µM), respectively.
Take `COc1c(O)cc2c(c1O)C(=O)O[C@H](C)[C@H]2Oc1c(Cl)c2c(c(O)c1OC)C(=O)O[C@H](C)C2`: the outcome in the test with HCT-116, in the test with HepG2, in the test with MCF7, in the test with HeLa and with A549 was inactive. For the same compound, the MIC is 32 µg/mL (≈ 66.5 µM) in the test with Escherichia coli, 32 µg/mL (≈ 66.5 µM) in the test with Pseudomonas aeruginosa and 64 µg/mL (≈ 133 µM) in the test with Staphylococcus aureus.
As for `COc1c(O)cc2c(c1O)C(=O)O[C@H](C)[C@@H]2Oc1c(Cl)c2c(c(O)c1OC)C(=O)O[C@H](C)[C@@H]2O`, the result in the test with HCT-116, with HepG2, in the test on MCF7, in the test on HeLa and with A549 was inactive. Further, the results for the MIC against Escherichia coli, in the test with Pseudomonas aeruginosa and against Staphylococcus aureus were 8 µg/mL (≈ 16.1 µM), 64 µg/mL (≈ 129 µM) and 64 µg/mL (≈ 129 µM), respectively.
Take `COc1c(O)cc2c(c1O)C(=O)O[C@H](C)[C@H]2OC`: the result in the test with HCT-116, with HepG2, in the test on MCF7, in the test with HeLa and in the test on A549 was inactive. The figures for the MIC against Escherichia coli, against Pseudomonas aeruginosa and with Staphylococcus aureus were 16 µg/mL (≈ 62.9 µM), 64 µg/mL (≈ 252 µM) and 64 µg/mL (≈ 252 µM), respectively.
Take `COc1c(O)c(Cl)c2c(c1O)C(=O)O[C@H](C)C2`: the result in the test with HCT-116, in the test with HepG2, in the test with MCF7, with HeLa and in the test on A549 was inactive. In addition, the MIC against Escherichia coli is 2 µg/mL (≈ 7.73 µM); against Pseudomonas aeruginosa, 32 µg/mL (≈ 124 µM); in the test on Staphylococcus aureus it was 32 µg/mL (≈ 124 µM).
With `COc1c(O)cc2c(c1O)C(=O)O[C@H](C)[C@@H]2Oc1c(Cl)c2c(c(O)c1OC)C(=O)O[C@H](C)C2`, the outcome in the test on HCT-116, in the test with HepG2, with MCF7, in the test with HeLa and in the test with A549 was inactive. Moreover, the MIC was 64 µg/mL (≈ 133 µM) with Escherichia coli, 32 µg/mL (≈ 66.5 µM) against Pseudomonas aeruginosa and 64 µg/mL (≈ 133 µM) in the test with Staphylococcus aureus.
Turning to `COc1c(O)cc2c(c1O)C(=O)O[C@H](C)[C@@H]2OC`, the result in the test on HCT-116, with HepG2, in the test with MCF7, in the test with HeLa and in the test on A549 was inactive. The MIC was 16 µg/mL (≈ 62.9 µM) with Escherichia coli, 64 µg/mL (≈ 252 µM) with Pseudomonas aeruginosa and 64 µg/mL (≈ 252 µM) in the test with Staphylococcus aureus.
In the case of `COc1c(O)cc2c(c1O)C(=O)O[C@H](C)[C@@H]2Oc1cc2c(c(O)c1OC)C(=O)O[C@H](C)C2`, the result with HCT-116, in the test on HepG2, with MCF7, in the test with HeLa and in the test with A549 was inactive. Besides, the results for the MIC against Escherichia coli, in the test on Pseudomonas aeruginosa and with Staphylococcus aureus were 1 µg/mL (≈ 2.24 µM), 32 µg/mL (≈ 71.7 µM) and 64 µg/mL (≈ 143 µM), respectively.
Regarding `COc1c(O)c(Cl)c2c(c1O)C(=O)O[C@H](C)[C@H]2OC(C)=O`, the outcome in the test filed under Danio rerio [1], in the test filed under Danio rerio [2] and in the test filed under Danio rerio [3] was Active. In addition, the outcome in the test with HCT-116, with HepG2, in the test on MCF7, in the test on HeLa and with A549 was inactive. Besides, the MIC was 32 µg/mL (≈ 101 µM) against Escherichia coli, greater than 64 µg/mL against Pseudomonas aeruginosa and 32 µg/mL (≈ 101 µM) with Staphylococcus aureus.
`COc1c(O)cc2c(c1O)C(=O)O[C@H](C)[C@@H]2O`: the outcome with HCT-116, with HepG2, in the test with MCF7, with HeLa and with A549 was inactive. For the same compound, the minimum inhibitory concentration (MIC) with Escherichia coli turned out to be 8 µg/mL (≈ 33.3 µM); with Pseudomonas aeruginosa, 64 µg/mL (≈ 266 µM); in the test with Staphylococcus aureus, 64 µg/mL (≈ 266 µM).
